Measured values published in US20060074091A1, “Nootropic effect enhancer” (priority 2000, published 2006).

Test system: Fischer male rats with Meynert's basal nuclei damage
Assay: Passive avoidance learning test (mneme test) in rats with ibotenic acid injury of Meynert's basal nuclei
Type: in vivo, rat
Conditions: 0.1 mg/kg
Method: A solution prepared by dissolving ibotenic acid in physiological saline to have a concentration of 8 μg/μl was injected into the Meynert's basal nuclei of Fischer male rats (n=12 to 13, 11-weeks old when used in the experiment). One μl of the solution was injected thereinto over a period of 6 minutes, and then the rats were left as they were for 5 minutes to thereby make them have bilateral injury. Three weeks after the treatment, they were used in the experiment. Before the experiment, they were handled for 3 days. In the mneme test, the rats were first put into the light room of a passive avoidance learning test device, and the latent time taken before they entered the dark room was measured (acclimation trial). […] Then, the rats were made to receive electric shock (0.4 mA, 4 seconds) via the grid of the floor of the dark room (acquirement trial) 24 hours after the acquirement trial, the rats were again transferred into the light room, and the reaction latent time taken before the rats entered the dark room was measured up to at most 300 seconds (retention trial). […] The dose of each of the two substances was determined on the basis of the test results previously made for the efficacy of the single administration of each substance to the same models. […]

| SMILES | effect on reaction latent time in single administration (in words) |
| --- | --- |
| COc1cc2c(cc1OC)C(=O)C(CC1CCN(Cc3ccccc3)CC1)C2.Cl (centres unmarked) [E2020, Donepedil Hydrochloride] | ineffective |
| CC(=O)N1CCN(NC(=O)c2ccc(F)cc2)CC1 [FK960, N-(4-acetyl-1-piperazinyl)-p-fluorobenzamide Monohydrate] | ineffective |
